ChEMBL document CHEMBL4406860, “Discovery of potent ureido tetrahydrocarbazole derivatives for cancer treatments through targeting tumor-associated macrophages” (Eur J Med Chem, 2019)
Activity calls are given as the source filed them. No cut-off for these calls is given here.

Assays:
RAW264.7 [1] = experiment: Increase in TNF-alpha production in mouse RAW264.7 cells at 50 uM incubated for 24 hrs by ELISA (reference value: 1133.56 +/- 46.61 pg/ml); assay type: functional
[2] = Increase in TNF-alpha production in mouse BMDM cells incubated for 24 hrs by ELISA; assay type: functional, cell-based
RAW264.7 [3] = experiment: Increase in TNF-alpha production in mouse RAW264.7 cells incubated for 24 hrs by ELISA; assay type: functional, cell-based; settings: RAW264.7, 24 h
RAW264.7 [4] = experiment: Cytotoxicity against mouse RAW264.7 cells assessed as reduction in cell viability at 1000 uM incubated for 24 hrs by CCK-8 assay; assay type: cell-based; settings: raw264.7, 24 h
[5] = Toxicity in C57BL/6 mouse xenografted with mouse LLC cells assessed as effect on lungs at 5 mg/kg, ip administered every other day for 30 days by H and E staining based microscopic analysis; assay type: organism-based; settings: in vivo, 720 h
RAW264.7 [6] = experiment: Induction of M1-phenotype markers expression in mouse RAW264.7 cells assessed as increase in TNFalpha expression incubated for 1 hr by qRT-PCR; assay type: functional, cell-based
RAW264.7 [7] = experiment: Inhibition of M2-phenotype markers expression in mouse RAW264.7 cells assessed as decrease in IL-4 -induced in Fizz-1 expression incubated for 1 hr by qRT-PCR; assay type: functional, cell-based
[8] = Toxicity in C57BL/6 mouse xenografted with mouse LLC cells assessed as effect on body weight in prescence of anti-PD1 (1 mg/kg) at 5 mg/kg, ip administered every other day for 30 days; assay type: organism-based; settings: in vivo, 720 h
RAW264.7 [9] = experiment: Induction of M1-phenotype associated markers in mouse RAW264.7 cells assessed as F4/80-MHC II expression incubated for 24 hrs by flow cytometry (reference value: 12.1 %); assay type: functional
[10] = test system: Lewis lung carcinoma cell line; experiment: Antitumor activity against mouse LLC cells xenografted in C57BL/6 mouse assessed as reduction in tumor volume at 5 mg/kg, ip administered every other day for 30 days; assay type: functional, organism-based
RAW264.7 [11] = experiment: Induction of M1-phenotype markers expression in mouse RAW264.7 cells assessed as increase in IL-12alpha expression incubated for 1 hr by qRT-PCR; assay type: functional, cell-based
RAW264.7 [12] = experiment: Inhibition of M2-phenotype markers expression in mouse RAW264.7 cells assessed as decrease in IL-4 -induced in Arg-1 expression incubated for 1 hr by qRT-PCR; assay type: functional, cell-based
[13] = test system: Lewis lung carcinoma cell line; experiment: Antitumor activity against mouse LLC cells xenografted in C57BL/6 mouse assessed as reduction in tumor weight at 5 mg/kg, ip administered every other day for 30 days; assay type: functional, organism-based
[14] = Toxicity in C57BL/6 mouse xenografted with mouse LLC cells assessed as effect on liver at 5 mg/kg, ip administered every other day for 30 days by H and E staining based microscopic analysis; assay type: organism-based; settings: in vivo, 720 h
[15] = test system: Lewis lung carcinoma cell line; experiment: Antitumor activity against mouse LLC cells xenografted in C57BL/6 mouse assessed as reduction in tumor weight in prescence of anti-PD1 at 5 mg/kg, ip administered every other day for 30 days; assay type: functional, organism-based
RAW264.7 [16] = experiment: Induction of M1-phenotype markers expression in mouse RAW264.7 cells assessed as increase in iNOS expression incubated for 1 hr by qRT-PCR; assay type: functional, cell-based
RAW264.7 [17] = experiment: Induction of M1-phenotype markers expression in mouse RAW264.7 cells assessed as increase in IL-1beta expression incubated for 1 hr by qRT-PCR; assay type: functional, cell-based
Mus musculus [18] = experiment: In vivo inhibition of M2-phenotype associated marker in C57BL/6 mouse xenografted with mouse LLC cells assessed as decrease in F4/80-CD206 expression in presence of anti-PD1 at 5 mg/kg, ip administered every other day for 30 days by DAPI staining based immunofluorescence microscopic analysis; assay type: functional, organism-based
RAW264.7 [19] = experiment: Inhibition of M2-phenotype markers expression in mouse RAW264.7 cells assessed as decrease in IL-4 -induced in Ym-1R expression incubated for 1 hr by qRT-PCR; assay type: functional, cell-based
RAW264.7 [20] = experiment: Inhibition of M2-phenotype markers expression in mouse RAW264.7 cells assessed as decrease in IL-4 -induced CD206 expression incubated for 1 hr by qRT-PCR; assay type: functional, cell-based
[21] = test system: Lewis lung carcinoma cell line; experiment: Antitumor activity against mouse LLC cells xenografted in C57BL/6 mouse assessed as reduction in tumor volume in prescence of anti-PD1 at 5 mg/kg, ip administered every other day for 30 days; assay type: functional, organism-based
[22] = Toxicity in C57BL/6 mouse xenografted with mouse LLC cells assessed as effect on body weight at 5 mg/kg, ip administered every other day for 30 days; assay type: organism-based; settings: in vivo, 720 h
RAW264.7 [23] = experiment: Inhibition of M2-phenotype associated markers in mouse RAW264.7 cells assessed as F4/80-CD206 expression in presence of IL4 incubated for 24 hrs by flow cytometry (reference value: 7.54 %); assay type: functional
Mus musculus [24] = experiment: In vivo induction of M1-phenotype associated marker in C57BL/6 mouse xenografted with mouse LLC cells assessed as increase in F4/80-iNOS expression at 5 mg/kg, ip administered every other day for 30 days by DAPI staining based immunofluorescence microscopic analysis; assay type: functional, organism-based
Mus musculus [25] = experiment: In vivo inhibition of M2-phenotype associated marker in C57BL/6 mouse xenografted with mouse LLC cells assessed as decrease in F4/80-CD206 expression at 5 mg/kg, ip administered every other day for 30 days by DAPI staining based immunofluorescence microscopic analysis; assay type: functional, organism-based
Mus musculus [26] = experiment: In vivo induction of M1-phenotype associated marker in C57BL/6 mouse xenografted with mouse LLC cells assessed as increase in F4/80-iNOS expression in presence of anti-PD1 at 5 mg/kg, ip administered every other day for 30 days by DAPI staining based immunofluorescence microscopic analysis; assay type: functional, organism-based

## O=C(Nc1ccc(Cl)c(C(F)(F)F)c1)NC1CCc2[nH]c3c(C(=O)NCCOCCO)cccc3c2C1 (configuration not stated)
RAW264.7 [1]
  Activity: 3364.65 pg/mL

## O=C(Nc1ccc(Cl)c(C(F)(F)F)c1)NC1CCc2[nH]c3cccc(C(=O)NCCOCCO)c3c2C1 (configuration not stated)
RAW264.7 [1]
  Activity: 500.62 pg/mL

## O=C(Nc1ccc(Cl)c(C(F)(F)F)c1)NC1CCc2[nH]c3ccc(C(=O)NCCOCCO)cc3c2C1 (configuration not stated)
RAW264.7 [1]
  Activity: 561.78 pg/mL

## Cn1cc(-c2ccc3c4c([nH]c3c2)CCC(NC(=O)Nc2ccc(Cl)c(C(F)(F)F)c2)C4)cn1 (configuration not stated)
RAW264.7 [1]
  Activity: 3770.66 pg/mL

## O=C(Nc1ccc(Cl)c(C(F)(F)F)c1)NC1CCc2[nH]c3cccc(-c4cnn(CCO)c4)c3c2C1 (configuration not stated)
RAW264.7 [1]
  Activity: 6714.86 pg/mL
[2]
  EC50: 20.9 µM
RAW264.7 [3]
  EC50: 13.4 µM

## O=C(Nc1ccc(Cl)c(C(F)(F)F)c1)NC1CCc2[nH]c3cccc(C(=O)N4CCOCC4)c3c2C1 (configuration not stated)
RAW264.7 [1]
  Activity: 4025.54 pg/mL

## CC(C)NC(=O)c1ccc2c3c([nH]c2c1)CCC(NC(=O)Nc1ccc(Cl)c(C(F)(F)F)c1)C3 (configuration not stated)
RAW264.7 [1]
  Activity: 5566.34 pg/mL

## O=C(Nc1ccc(Cl)c(C(F)(F)F)c1)NC1CCc2[nH]c3cc(C(=O)NCCCO)ccc3c2C1 (configuration not stated)
RAW264.7 [1]
  Activity: 5030.39 pg/mL

## O=C(Nc1ccc(Cl)c(C(F)(F)F)c1)NC1CCc2[nH]c3cc(C(=O)NCCOCCO)ccc3c2C1 (configuration not stated)
RAW264.7 [1]
  Activity: 6968.79 pg/mL

## O=C(Nc1ccc(Cl)c(C(F)(F)F)c1)NC1CCc2[nH]c3ccc(C(=O)N4CCOCC4)cc3c2C1 (configuration not stated)
RAW264.7 [1]
  Activity: 5510.03 pg/mL

## O=C(Nc1ccc(Cl)c(C(F)(F)F)c1)NC1CCc2[nH]c3cc(-c4cnn(CCO)c4)ccc3c2C1 (configuration not stated)
RAW264.7 [1]
  Activity: 6043.84 pg/mL

## CN1CCN(C(=O)c2cccc3c4c([nH]c23)CCC(NC(=O)Nc2ccc(Cl)c(C(F)(F)F)c2)C4)CC1 (configuration not stated)
RAW264.7 [1]
  Activity: 2506.98 pg/mL

## O=C(Nc1ccc(Cl)c(C(F)(F)F)c1)NC1CCc2[nH]c3cc(C(=O)NC4CC4)ccc3c2C1 (configuration not stated)
RAW264.7 [1]
  Activity: 6034.58 pg/mL

## CN1CCN(C(=O)c2ccc3[nH]c4c(c3c2)CC(NC(=O)Nc2ccc(Cl)c(C(F)(F)F)c2)CC4)CC1 (configuration not stated)
RAW264.7 [1]
  Activity: 4935.9 pg/mL

## CN1CCN(C(=O)c2cccc3[nH]c4c(c23)CC(NC(=O)Nc2ccc(Cl)c(C(F)(F)F)c2)CC4)CC1 (configuration not stated)
RAW264.7 [1]
  Activity: 3714.66 pg/mL

## O=C(Nc1ccc(Cl)c(C(F)(F)F)c1)NC1CCc2[nH]c3c(C(=O)NC4CC4)cccc3c2C1 (configuration not stated)
RAW264.7 [1]
  Activity: 7730.01 pg/mL
[2]
  EC50: 63.5 µM
RAW264.7 [3]
  EC50: 18.4 µM

## O=C(Nc1ccc(Cl)c(C(F)(F)F)c1)NC1CCc2[nH]c3ccc(C(=O)NC4CC4)cc3c2C1 (configuration not stated)
RAW264.7 [1]
  Activity: 4458.11 pg/mL

## O=C(Nc1ccc(Cl)c(C(F)(F)F)c1)NC1CCc2[nH]c3c(C(=O)N4CCOCC4)cccc3c2C1 (configuration not stated)
RAW264.7 [1]
  Activity: 4127.15 pg/mL

## Cn1cc(-c2cccc3[nH]c4c(c23)CC(NC(=O)Nc2ccc(Cl)c(C(F)(F)F)c2)CC4)cn1 (configuration not stated)
RAW264.7 [4]
  Activity: Non-Toxic
[5]
  Activity: Non-Toxic
RAW264.7 [1]
  Activity: 5994.12 pg/mL
RAW264.7 [6]
  Activity: Dose-dependent effect
RAW264.7 [7]
  inhibition: Dose-dependent effect
[8]
  Activity: Non-Toxic
RAW264.7 [9]
  Activity: 24.4%
[10]
  Activity: Active
RAW264.7 [11]
  Activity: Dose-dependent effect
RAW264.7 [12]
  inhibition: Dose-dependent effect
[13]
  Activity: Active
[14]
  Activity: Non-Toxic
[15]
  Activity: Active
RAW264.7 [16]
  Activity: Dose-dependent effect
RAW264.7 [17]
  Activity: Dose-dependent effect
Mus musculus [18]
  Activity: Active
RAW264.7 [19]
  inhibition: Dose-dependent effect
RAW264.7 [20]
  inhibition: Dose-dependent effect
[2]
  EC50: 18.9 µM
[21]
  Activity: Active
[22]
  Activity: Non-Toxic
RAW264.7 [23]
  inhibition (INH): 8.76%
RAW264.7 [3]
  EC50: 17.2 µM
Mus musculus [24]
  Activity: Active
Mus musculus [25]
  Activity: Active
Mus musculus [26]
  Activity: Active

## O=C(Nc1ccc(Cl)c(C(F)(F)F)c1)NC1CCc2[nH]c3cc(C(=O)N4CCOCC4)ccc3c2C1 (configuration not stated)
RAW264.7 [1]
  Activity: 6085.83 pg/mL

## O=C(Nc1ccc(Cl)c(C(F)(F)F)c1)NC1CCc2[nH]c3cc(C(=O)NCCO)ccc3c2C1 (configuration not stated)
RAW264.7 [1]
  Activity: 4377.67 pg/mL

## O=C(Nc1ccc(Cl)c(C(F)(F)F)c1)NC1CCc2[nH]c3cccc(C(=O)NC4CC4)c3c2C1 (configuration not stated)
RAW264.7 [1]
  Activity: 6427.32 pg/mL

## CN1CCN(C(=O)c2ccc3c4c([nH]c3c2)CCC(NC(=O)Nc2ccc(Cl)c(C(F)(F)F)c2)C4)CC1 (configuration not stated)
RAW264.7 [1]
  Activity: 6552.76 pg/mL
